Measurements: PMC12373846, “Hemoglobin as a pseudoperoxidase and drug target for oxidative stress-related diseases” (Signal Transduction and Targeted Therapy, 2025)
Read-outs that look alike come from different tables or passages of the source.

Experiments:
aged C57BL/6J mice = assay: Open field locomotor activity, aging mice; type: in vivo, mouse; conditions: 26 month
C57BL/6J mice = assay: Arterial blood P50 and Hb concentration; type: in vivo, mouse; conditions: 0.1, 1 or 10 mg/kg, 24 h
Description: The mice were placed in a supine position to expose the thoracic area. The mice were anesthetized with 2.5% sevoflurane and placed in the supine position. Mechanical ventilation was provided via a custom-made face mask connected to a ventilator (Ventstar small animal ventilator R415, RWD) set to deliver room air (FiO2 = 0.21), with a respiratory rate of 180 breaths per min and a tidal volume of 10 μl/g body weight. Without a surgical incision, a 1 ml syringe was directly inserted into the heart to collect bright red arterial blood. Care was taken to avoid venous sampling, and blood was passively drawn into the syringe under physiological arterial pressure. The collected arterial blood was immediately analyzed via an i-STAT® 1 Analyzer (Abbott) with CG8+ cartridges to measure pO2 (mmHg), SO2 (%), and hemoglobin concentrations (g/dL). P₅₀ values were calculated via the following equation: P50=pO2×1−SO2/SO2^1/n, n=2.711

[1] = PK-BBB brain-plasma permeability; type: in vivo, mouse; conditions: 5 mg/kg IV
Description: For the brain-plasma permeability assessment, brain tissues from male ICR mice (n = 3 per time point) were collected following euthanasia by CO2 inhalation. Brains were excised, rinsed with saline, blotted dry, and transferred into pre-labeled Eppendorf tubes (one brain per tube). Samples were snap-frozen on dry ice and stored at -80 °C until analysis. Brain samples were processed using the same LC-MS/MS method. The brain-to-plasma concentration ratio was calculated as the concentration of drug in brain tissue divided by the corresponding plasma concentration.

[2] = DPPH radical scavenging assay; conditions: Fig. S1e
Description: In a 96-well microplate, samples (20 μl) at concentrations ranging from 0.1 to 100 μM were mixed with 80 μL of 50 mM sodium phosphate buffer (pH 7.2) and 100 μL of DPPH (1,1-diphenyl-2-picrylhydrazyl) solution (250 μM in methanol) and incubated for 30-min in the dark. Each sample was quantified using a microplate fluorescence reader (SpectraMax iD5, Molecular Devices) at absorbance (517 nm). Edaravone was used as a positive control. The radical scavenging activity was estimated using the following equation: sample absorbance / control absorbance ×100. The dose-response curve, EC50 for the DPPH, was calculated and determined by fitting data with GraphPad Prism software. The fitting method had no special handling of outliers.

SOD1^G93A mice = assay: Survival and rotarod, SOD1^G93A ALS mice; type: in vivo, mouse; conditions: 1 and 10 mg/kg/day ad libitum
Description: SOD1^G93A mice (B6SJL-Tg(SOD1*G93A)1Gur/J) were purchased from Jackson Laboratory (strain number 002726) and used in the ALS mouse model. The mice were divided into four groups: Control, SOD1, and KDS12025 (1 and 10 mg/kg/day). Starting at 10 weeks of age, KDS12025 was administered via ad libitum drinking water at doses of 1 mg/kg/day and 10 mg/kg/day. The control and SOD1 groups received standard drinking water. Motor function was evaluated weekly via the rotarod performance test, and the ratio of running time was normalized to that of littermate controls to assess motor coordination and endurance over time. Survival of the mice was monitored for up to 24 weeks, and median survival times were calculated for each group.

mouse hemoglobin (mHb) = molecular target: T1, mouse hemoglobin (mHb) (Mus musculus, UniProt P02088); assay: ROS-Glo H2O2 assay with mouse hemoglobin; type: biochemical; conditions: Fig. S1f; read-out: EC50, H2O2 decomposition with mouse hemoglobin (mHb)
T1 construct: Mouse hemoglobin (Hb) purified from erythrocytes; purchased CUSABIO CSB-NP004901m; host or cells: erythrocytes
T1 sequence (P02088 2-147 limits assumed): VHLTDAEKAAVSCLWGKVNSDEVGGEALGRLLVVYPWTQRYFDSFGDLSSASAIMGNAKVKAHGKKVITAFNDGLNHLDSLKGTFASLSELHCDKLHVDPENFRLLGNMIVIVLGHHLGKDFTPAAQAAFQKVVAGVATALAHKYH
T1 sequence (P01942 2-142 partner limits assumed): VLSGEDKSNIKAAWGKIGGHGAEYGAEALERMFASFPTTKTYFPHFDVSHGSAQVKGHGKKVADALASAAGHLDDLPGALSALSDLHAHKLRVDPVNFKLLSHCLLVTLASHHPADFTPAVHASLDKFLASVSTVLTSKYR
Description: Mouse hemoglobin (Hb) purified from erythrocytes (Cat. CSB-NP004901m, CUSABIO) was used for the ROS-Glo H2O2 assay. KDS12025 was added in a dose-dependent manner to a reaction mixture containing mouse Hb and H2O2. The assay was performed according to the manufacturer’s protocol (Promega), and luminescence was measured using an iD5 plate reader. H2O2-decomposing activity was calculated as the percentage reduction in luminescence relative to controls. Assays with human Hb were conducted in parallel for comparison.

SMILES: CNc1ccc(NCCc2ccccc2OC)cc1.Cl [KDS12025, N^1-(2-methoxyphenethyl)-N^4-methylbenzene-1,4-diamine hydrochloride salt]
- distance traveled (Fig. 7d) (aged C57BL/6J mice; 0.1mpk): 3262±203
- locomotor velocity (Fig. 7c) (aged C57BL/6J mice; 0.1mpk): 5.42±0.34
- distance traveled (Fig. 7d) (aged C57BL/6J mice; 1mpk): 3600±561
- locomotor velocity (Fig. 7c) (aged C57BL/6J mice; 1mpk): 6.24±0.6
- arterial oxygen affinity (P50) vs vehicle (C57BL/6J mice): did not differ
- total Hb concentration in the blood (C57BL/6J mice): unaffected
- Brain concentration ([1]; 2 h): BLQ
- Brain concentration ([1]; 4 h): BLQ
- Brain concentration ([1]; 8 h): BLQ
- Plasma concentration ([1]; 8 h): BLQ
- concentration at 0.083 h ([1]; male, ICR, mouse, brain, 0.083 h, read-out: Brain concentration): 1680 ± 34.2 ng/g
- Kp at 0.083 h ([1]; male, ICR, mouse, brain, 0.083 h, read-out: Brain to plasma ratio (B/P)): 0.9 ± 0.17
- concentration at 0.25 h ([1]; male, ICR, mouse, brain, 0.25 h, read-out: Brain concentration): 589 ± 44.1 ng/g
- Kp at 0.25 h ([1]; male, ICR, mouse, brain, 0.25 h, read-out: Brain to plasma ratio (B/P)): 0.76 ± 0.04
- concentration at 0.5 h ([1]; male, ICR, mouse, brain, 0.5 h, read-out: Brain concentration): 234 ± 31.7 ng/g
- Kp at 0.5 h ([1]; male, ICR, mouse, brain, 0.5 h, read-out: Brain to plasma ratio (B/P)): 0.84 ± 0.19
- concentration at 1 h ([1]; male, ICR, mouse, brain, 1 h, read-out: Brain concentration): 65.6 ± 12.3 ng/g
- Kp at 1 h ([1]; male, ICR, mouse, brain, 1 h, read-out: Brain to plasma ratio (B/P)): 0.79 ± 0.25
- half-life ([1]; male, ICR, mouse, brain, mice, read-out: brain t1/2 (PK-BBB) (converted)): 14.4 min
- concentration at 0.083 h ([1]; male, ICR, mouse, plasma, 0.083 h, read-out: Plasma concentration): 1910 ± 323 ng/mL
- concentration at 0.25 h ([1]; male, ICR, mouse, plasma, 0.25 h, read-out: Plasma concentration): 782 ± 104 ng/mL
- concentration at 0.5 h ([1]; male, ICR, mouse, plasma, 0.5 h, read-out: Plasma concentration): 284 ± 45.5 ng/mL
- concentration at 1 h ([1]; male, ICR, mouse, plasma, 1 h, read-out: Plasma concentration): 84.7 ± 10.3 ng/mL
- concentration at 2 h ([1]; male, ICR, mouse, plasma, 2 h): 15.5 ± 7.09 ng/mL
- concentration at 4 h ([1]; male, ICR, mouse, plasma, 4 h): 2.99 ± 0.52 ng/mL
- AUC ([1]; male, ICR, mouse, plasma, mice, read-out: plasma AUCall (PK-BBB)): 721 ng·h/mL
- clearance ([1]; male, ICR, mouse, plasma, mice, read-out: plasma Cl (PK-BBB) (converted)): 115 mL/min/kg
- half-life ([1]; male, ICR, mouse, plasma, mice, read-out: plasma t1/2 (PK-BBB) (converted)): 39 min
- brain AUCall (PK-BBB) ([1]; mice): 437.01 ng·h/mL
- brain Cmax (PK-BBB) ([1]; mice): 1680.64 ng/mL
- IC50 [2]: 155 µM
- delay of motor impairment onset (SOD1^G93A mice; rotarod): more than 7 weeks
- median survival (SOD1^G93A mice; untreated 140): 168 days
- EC50 (mouse hemoglobin (mHb)): 0.024 µM

SMILES: O=C(O)c1cc(NCCc2ccc(C(F)(F)F)cc2)ccc1O [HTPEB, 2-hydroxy-5-[2-(4-trifluoromethyl-phenyl)-ethylamino]-benzoic acid, reference compound]
- IC50 [2]: 19.2 µM
